How the values were obtained:
Assay type in all cases: biochemical
PAK2 (PAK65) = PAK2 (PAK65) (Homo sapiens, UniProt Q13177); experiment: In vitro PAK inhibition assay (SelectScreen, Ser/Thr 20 peptide)
Experimental: (§1) Compounds are screened in 1% DMSO (final) in the well. For 10 point titrations, 3-fold serial dilutions are conducted.
(§2) All Peptide/Kinase Mixtures are diluted to a 2× working concentration in the appropriate Kinase Buffer
The 2×PAK2 (PAK65)/Ser/Thr 20 mixture is prepared in 50 mM HEPES pH 7.5, 0.01% BRIJ-35, 10 mM MgCl2, 1 mM EGTA. The final 10 μL Kinase Reaction consists of 0.29-6 ng PAK2 (PAK65) and 2 μM Ser/Thr 20 in 50 mM HEPES pH 7.5, 0.01% BRIJ-35, 10 mM MgCl2, 1 mM EGTA.
(§3) This control yields 100% cleaved peptide in the Development Reaction.
(§4) The 100% Phosphorylation Control, which consists of a synthetically phosphorylated peptide of the same sequence as the peptide substrate, is designed to allow for the calculation of percent phosphorylation.
(§5) This control is designed to produce a 10-50%* phosphorylated peptide in the Kinase Reaction.
(§6) A known inhibitor control standard curve, 10 point titration, is run for each individual kinase on the same plate as the kinase to ensure the kinase is inhibited within an expected IC50 range previously determined.
(§7) Add the following solutions to a well in a 384-well plate: • 2.5 μL of 4× Test Compound OR (100 nL 100× Test Compound plus 2.4 μL kinase buffer) • 5 μL of 2× Peptide/Kinase (PAK) Mixture • 2.5 μL of 4×ATP Solution • 2. Shake the plate for 30-seconds • 3. Incubate the PAK Kinase Reaction at room temperature for 60-minutes • 4. Add 5 μL of Development Reagent Solution to each well • 5. Shake the plate for 30-seconds • 6. Incubate the Development Reaction for 60-minutes • 7. Determine the fluorescence using a fluorescence plate reader • 8. Analyze the fluorescence data
(§8) SelectScreen® Kinase Profiling Service uses XLfit from IDBS.
(§9) The representative IC50 value with a known inhibitor for each kinase was determined at the ATP bin nearest to the ATP Km app.

PAK3 = PAK3 (Homo sapiens, UniProt O75914); experiment: as above
Sequence of PAK3 (O75914 whole entry): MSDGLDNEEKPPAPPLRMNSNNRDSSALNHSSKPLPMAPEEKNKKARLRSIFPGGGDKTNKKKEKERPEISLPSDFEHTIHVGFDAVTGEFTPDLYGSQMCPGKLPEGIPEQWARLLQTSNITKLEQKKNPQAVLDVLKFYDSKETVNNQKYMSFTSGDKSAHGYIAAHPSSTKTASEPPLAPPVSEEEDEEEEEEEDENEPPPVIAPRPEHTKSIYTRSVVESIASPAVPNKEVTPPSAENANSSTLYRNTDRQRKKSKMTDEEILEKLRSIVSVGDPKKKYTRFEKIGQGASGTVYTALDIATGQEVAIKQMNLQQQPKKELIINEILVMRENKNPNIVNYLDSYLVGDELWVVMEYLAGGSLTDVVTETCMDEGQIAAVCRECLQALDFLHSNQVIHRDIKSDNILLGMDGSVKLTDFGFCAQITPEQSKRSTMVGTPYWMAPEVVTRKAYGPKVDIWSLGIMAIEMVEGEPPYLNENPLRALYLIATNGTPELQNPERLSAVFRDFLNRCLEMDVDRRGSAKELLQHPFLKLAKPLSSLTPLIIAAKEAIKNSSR
Experimental: as §1, §2
The 2×PAK3/Ser/Thr 20 mixture is prepared in 50 mM HEPES pH 7.5, 0.01% BRIJ-35, 10 mM MgCl2, 1 mM EGTA.
as §3, §4, §5, §6, §7, §8, §9

PAK1 = PAK1 (Homo sapiens, UniProt Q13153); experiment: In vitro PAK inhibition assay (SelectScreen, Ser/Thr 19 peptide)
Sequence of PAK1 (Q13153 whole entry): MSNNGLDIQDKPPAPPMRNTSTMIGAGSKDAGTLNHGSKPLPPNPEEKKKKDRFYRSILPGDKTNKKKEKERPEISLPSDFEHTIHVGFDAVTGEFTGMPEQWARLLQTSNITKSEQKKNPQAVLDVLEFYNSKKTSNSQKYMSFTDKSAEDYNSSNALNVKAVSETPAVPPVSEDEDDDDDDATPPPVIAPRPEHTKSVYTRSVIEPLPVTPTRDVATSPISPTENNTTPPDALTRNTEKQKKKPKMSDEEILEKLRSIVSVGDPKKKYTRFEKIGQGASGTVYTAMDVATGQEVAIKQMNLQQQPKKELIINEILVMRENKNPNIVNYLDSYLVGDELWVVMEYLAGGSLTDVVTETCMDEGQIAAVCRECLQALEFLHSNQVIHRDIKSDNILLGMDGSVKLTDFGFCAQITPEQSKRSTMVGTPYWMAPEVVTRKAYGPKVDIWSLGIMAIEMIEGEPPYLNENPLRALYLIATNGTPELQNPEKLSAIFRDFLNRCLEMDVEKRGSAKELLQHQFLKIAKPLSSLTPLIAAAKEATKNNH
Experimental: as §1, §2
The 2×PAK1/Ser/Thr 19 mixture is prepared in 50 mM HEPES pH 7.5, 0.01% BRIJ-35, 10 mM MgCl2, 1 mM EGTA.
as §3, §4, §5, §6, §7, §8, §9

PAK4 = PAK4 (Homo sapiens, UniProt O96013); experiment: In vitro PAK inhibition assay (SelectScreen, Ser/Thr 20 peptide)
Sequence of PAK4 (O96013 whole entry): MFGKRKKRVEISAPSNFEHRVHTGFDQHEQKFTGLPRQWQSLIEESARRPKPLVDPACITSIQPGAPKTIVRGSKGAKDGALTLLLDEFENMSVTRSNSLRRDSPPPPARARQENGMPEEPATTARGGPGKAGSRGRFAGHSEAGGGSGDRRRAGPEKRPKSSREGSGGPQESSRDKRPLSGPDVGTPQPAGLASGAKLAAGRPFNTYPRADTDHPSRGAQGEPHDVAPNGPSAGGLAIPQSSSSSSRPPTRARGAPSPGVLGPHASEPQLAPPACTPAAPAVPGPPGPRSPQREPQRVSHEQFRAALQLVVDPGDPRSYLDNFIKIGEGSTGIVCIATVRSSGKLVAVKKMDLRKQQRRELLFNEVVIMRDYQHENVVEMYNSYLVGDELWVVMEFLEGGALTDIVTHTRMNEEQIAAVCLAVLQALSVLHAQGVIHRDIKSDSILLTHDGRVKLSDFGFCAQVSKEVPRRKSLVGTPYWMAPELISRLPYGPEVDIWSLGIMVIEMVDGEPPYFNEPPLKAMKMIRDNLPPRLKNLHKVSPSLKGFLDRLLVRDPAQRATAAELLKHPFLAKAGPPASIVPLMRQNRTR
Experimental: as §1, §2
The 2×PAK4/Ser/Thr 20 mixture is prepared in 50 mM HEPES pH 7.5, 0.01% BRIJ-35, 10 mM MgCl2, 1 mM EGTA. The final 10 μL Kinase Reaction consists of 0.1-0.75 ng PAK4 and 2 μM Ser/Thr 20 in 50 mM HEPES pH 7.5, 0.01% BRIJ-35, 10 mM MgCl2, 1 mM EGTA. After the 1 hour Kinase Reaction incubation, 5 μL of a 1:256 dilution of Development Reagent A is added.
as §3, §4
The minimum Emission Ratio in a screen is established by the 0% Inhibition Control, which contains active kinase. This control is designed to produce a 10-50%* phosphorylated peptide in the Kinase Reaction.
as §6
as §7, with “Bar-coded Corning, low volume NBS, black 384-well plate (Corning Cat. #3676) • 1. Add the” for “Add the”
SelectScreen® Kinase Profiling Service uses XLfit from IDBS. The dose response curve is curve fit to model number 205 (sigmoidal dose-response model).
The table below provides specifications and data around each kinase. The representative IC50 value with a known inhibitor for each kinase was determined at the ATP bin nearest to the ATP Km app.

Sequence of PAK2 (PAK65) (Q13177 whole entry): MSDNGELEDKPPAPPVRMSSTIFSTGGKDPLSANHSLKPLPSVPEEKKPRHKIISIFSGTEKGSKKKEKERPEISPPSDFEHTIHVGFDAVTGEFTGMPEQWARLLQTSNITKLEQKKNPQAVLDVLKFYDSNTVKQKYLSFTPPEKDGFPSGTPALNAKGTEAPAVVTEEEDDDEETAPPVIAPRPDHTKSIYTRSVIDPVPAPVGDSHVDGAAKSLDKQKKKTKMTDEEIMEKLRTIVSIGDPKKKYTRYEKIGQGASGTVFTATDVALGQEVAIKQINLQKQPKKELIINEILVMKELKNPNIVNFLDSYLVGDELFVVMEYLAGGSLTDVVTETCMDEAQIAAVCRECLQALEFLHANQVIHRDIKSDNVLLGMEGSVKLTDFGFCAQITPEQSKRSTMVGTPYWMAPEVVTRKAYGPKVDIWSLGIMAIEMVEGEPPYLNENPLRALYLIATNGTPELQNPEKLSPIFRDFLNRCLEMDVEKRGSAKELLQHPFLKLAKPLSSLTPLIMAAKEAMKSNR

Row | IC50 (PAK2 (PAK65)) | IC50 (PAK3) | IC50 (PAK1) | IC50 (PAK4) | SMILES
1 | > 5000 nM | > 5000 nM | > 5000 nM | ≥ 5000 nM | CCn1c(=O)c(-c2ccc(-c3noc(C)n3)s2)cc2cnc(Nc3ccc(N4CCN(C)CC4)cc3)nc21
2 | < 50 nM | 50 to 500 nM | < 50 nM | 500 to 5000 nM | CCn1c(=O)c(-c2ccc(-c3ccc(C)nc3F)cc2Cl)cc2cnc(Nc3ccc(C4CCNCC4)cc3)nc21
3 | > 5000 nM | > 5000 nM | 500 to 5000 nM | ≥ 5000 nM | CCn1c(=O)c(-c2nc(C3CCNCC3)sc2C)cc2cnc(Nc3ccc(N4CCN(C)CC4)cc3)nc21
4 | 500 to 5000 nM | > 5000 nM | 50 to 500 nM | ≥ 5000 nM | CCn1c(=O)c(-c2ccc(-c3cccs3)cc2)cc2cnc(Nc3ccc(N4CCN(C)CC4)cc3)nc21
5 | < 50 nM | < 50 nM | < 50 nM | 500 to 5000 nM | CCn1c(=O)c(-c2ccc(-c3noc(C)n3)cc2Cl)cc2cnc(Nc3ccc(CCN4CCCC4)cc3)nc21
6 | > 5000 nM | > 5000 nM | > 5000 nM | ≥ 5000 nM | CCn1c(=O)c(-c2nc(C3CCN(C(C)=O)CC3)sc2C)cc2cnc(Nc3ccc(N4CCN(C)CC4)cc3)nc21
7 | < 50 nM | < 50 nM | < 50 nM | ≥ 5000 nM | CCn1c(=O)c(-c2ccc(-c3noc(C(F)(F)F)n3)cc2Cl)cc2cnc(Nc3ccc(N4CCN(C(C)C)CC4)cc3)nc21
8 | 50 to 500 nM | 50 to 500 nM | 50 to 500 nM | ≥ 5000 nM | CCn1c(=O)c(-c2ccc(-c3ccnc(C(=O)NC)c3)cc2Cl)cc2cnc(Nc3ccc(CCN(C)C)cc3)nc21
9 | < 50 nM | < 50 nM | < 50 nM | 500 to 5000 nM | CCn1c(=O)c(-c2ccc(-c3cccnc3)cc2Cl)cc2cnc(Nc3ccc(N4CCNCC4)cc3)nc21
10 | > 5000 nM | > 5000 nM | > 5000 nM | ≥ 5000 nM | CCn1c(=O)c(-c2ccc(-c3ccncc3)s2)cc2cnc(Nc3ccc(N4CCN(C)CC4)cc3)nc21
11 | 500 to 5000 nM | 500 to 5000 nM | 500 to 5000 nM | ≥ 5000 nM | CCn1c(=O)c(-c2ccc(-c3noc(C)n3)nc2)cc2cnc(Nc3ccc(C4CCN(C)CC4)cc3)nc21
12 | < 50 nM | < 50 nM | < 50 nM | ≥ 5000 nM | Cc1nccnc1-c1ccc(-c2cc3cnc(Nc4ccc(C5CCN(C)CC5)cc4)nc3n(C)c2=O)c(Cl)c1
13 | > 5000 nM | > 5000 nM | > 5000 nM | ≥ 5000 nM | CCn1c(=O)c(-c2nc(C3CCN(C)CC3)sc2C)cc2cnc(Nc3ccc(N4CCN(C)CC4)cc3)nc21
14 | 50 to 500 nM | 50 to 500 nM | 50 to 500 nM | ≥ 5000 nM | CCn1c(=O)c(-c2ccc(-c3cccc4ncccc34)cc2Cl)cc2cnc(Nc3ccc(N4CCN(C)CC4)cc3)nc21
15 | < 50 nM | < 50 nM | < 50 nM | ≥ 5000 nM | CCn1c(=O)c(-c2ccc(-c3cccnc3)cc2Cl)cc2cnc(Nc3ccc(N4CCN(C(C)C)CC4)c(F)c3)nc21
16 | 50 to 500 nM | 50 to 500 nM | < 50 nM | ≥ 5000 nM | CCOC(=O)c1nc(-c2ccc(-c3cc4cnc(Nc5ccc(N6CCN(C)CC6)cc5)nc4n(CC)c3=O)c(Cl)c2)no1
17 | < 50 nM | < 50 nM | < 50 nM | 500 to 5000 nM | CCn1c(=O)c(-c2ccc(-c3cccnc3)cc2Cl)cc2cnc(Nc3ccc(N4CCN(C)CC4)c(F)c3)nc21
18 | 50 to 500 nM | 50 to 500 nM | 50 to 500 nM | 500 to 5000 nM | CCN1CCC(c2ccc(Nc3ncc4cc(-c5ccc(-c6ccnc(C(=O)NC)c6)cc5Cl)c(=O)n(CC)c4n3)cc2)CC1

Row | IC50 (PAK2 (PAK65)) | IC50 (PAK3) | IC50 (PAK1) | IC50 (PAK4) | SMILES
19 | < 50 nM | < 50 nM | < 50 nM | 500 to 5000 nM | CCn1c(=O)c(-c2ccc(-c3scnc3C)cc2Cl)cc2cnc(Nc3ccc(N4CCNCC4)cc3)nc21
20 | 500 to 5000 nM | 500 to 5000 nM | 50 to 500 nM | ≥ 5000 nM | CN1CCC(c2ccc(Nc3ncc4cc(-c5cc(-c6cccnc6)ccc5Cl)c(=O)n(C)c4n3)cc2)CC1
21 | 50 to 500 nM | 500 to 5000 nM | 500 to 5000 nM | ≥ 5000 nM | CCn1c(=O)c(-c2ccc(-c3ccn[nH]3)cc2)cc2cnc(Nc3ccc(N4CCN(C)CC4)cc3)nc21
22 | 50 to 500 nM | 50 to 500 nM | 50 to 500 nM | ≥ 5000 nM | CCn1c(=O)c(-c2ccc(-c3ccc(F)nc3C)cc2Cl)cc2cnc(Nc3ccc(C4CCNCC4)c(F)c3)nc21
23 | 500 to 5000 nM | > 5000 nM | 500 to 5000 nM | ≥ 5000 nM | CCn1c(=O)c(-c2nc(C)sc2C)cc2cnc(Nc3ccc(N4CCN(C)CC4)cc3)nc21
24 | 50 to 500 nM | 50 to 500 nM | < 50 nM | ≥ 5000 nM | CCn1c(=O)c(-c2ccc(-c3noc(C)n3)cc2)cc2cnc(Nc3ccc(N4CCN(C)CC4)cc3)nc21
25 | 50 to 500 nM | 50 to 500 nM | 50 to 500 nM | 500 to 5000 nM | CCn1c(=O)c(-c2ccc(-c3ccc(C)nc3F)cc2Cl)cc2cnc(Nc3ccc(C4CCN(C)CC4)c(F)c3)nc21
26 | > 5000 nM | > 5000 nM | > 5000 nM | ≥ 5000 nM | CCn1c(=O)c(-c2ccc(-c3nnn[nH]3)s2)cc2cnc(Nc3ccc(N4CCN(C)CC4)cc3)nc21
27 | 50 to 500 nM | 50 to 500 nM | 50 to 500 nM | ≥ 5000 nM | CCn1c(=O)c(-c2ccc(-c3noc(C)n3)cc2)cc2cnc(Nc3ccc(C4CCN(C)CC4)cc3)nc21
28 | > 5000 nM | 500 to 5000 nM | > 5000 nM | ≥ 5000 nM | CC(=O)N(C)c1ncccc1-c1ccc(Cl)c(-c2cc3cnc(Nc4ccc(C5CCN(C)CC5)cc4)nc3n(C)c2=O)c1
29 | 50 to 500 nM | 50 to 500 nM | < 50 nM | ≥ 5000 nM | Cc1ncccc1-c1ccc(-c2cc3cnc(Nc4ccc(C5CCNCC5)cc4)nc3n(C)c2=O)c(Cl)c1
30 | < 50 nM | 50 to 500 nM | < 50 nM | ≥ 5000 nM | CCn1c(=O)c(-c2ccc(-c3cccnc3C)cc2Cl)cc2cnc(Nc3ccc(CCN(C)C)cc3)nc21
31 | 50 to 500 nM | 50 to 500 nM | < 50 nM | ≥ 5000 nM | CCn1c(=O)c(-c2ccc(-c3cc(C)ncn3)cc2Cl)cc2cnc(Nc3ccc(C4CCN(C)CC4)cc3)nc21
32 | < 50 nM | < 50 nM | < 50 nM | ≥ 5000 nM | Cc1nc(-c2ccc(-c3cc4cnc(Nc5ccc(C6CCN(C)CC6)cc5)nc4n(C)c3=O)c(C)c2)no1
33 | 50 to 500 nM | 50 to 500 nM | 50 to 500 nM | 500 to 5000 nM | CCn1c(=O)c(-c2ccc(-c3ccc(C)nc3F)cc2Cl)cc2cnc(Nc3ccc(C4CCNCC4)c(F)c3)nc21
34 | < 50 nM | 50 to 500 nM | < 50 nM | ≥ 5000 nM | CCn1c(=O)c(-c2ccc(-c3ccc(C)nc3)cc2Cl)cc2cnc(Nc3ccc(C4CCN(C(C)C)CC4)cc3)nc21
35 | 50 to 500 nM | 50 to 500 nM | 50 to 500 nM | 500 to 5000 nM | CCN1CCC(c2ccc(Nc3ncc4cc(-c5ccc(-c6ccc(C)nc6F)cc5Cl)c(=O)n(CC)c4n3)cc2)CC1
